According to paper PMC9820430, “New Affordable Methods for Large-Scale Isolation of Major Olive Secoiridoids and Systematic Comparative Study of Their Antiproliferative/Cytotoxic Effect on Multiple Cancer Cell Lines of Different Cancer Origins” (International Journal of Molecular Sciences, 2022):
Marks after values point to notes of the source that are not given here.

Assays:
Type in all cases: cell-based, human
MDA-MB 231 = assay: EdU incorporation cell proliferation assay, 24 h; settings: for % Inhibition ± SE of cell proliferation: 24 h at EC50, normalized with the control; for % EdU +ve ± SE (S-phase cells): 24 h treatment at EC50 concentration
Method: (§1) For this purpose, ten cancer cell lines (i.e., MDA-MB 231, SK-BR-3, MCF-7, A2058, SK-MEL-28, AGS, HepG-2, PANC-1, H1299 and Hela) originating from breast, melanoma, stomach, hepatic, pancreatic, lung and cervical tumors were analyzed in parallel with control samples (i.e., the same cells treated only with 0.2% (v/v) DMSO). […] Subsequently, the treated cells were allowed to incorporate 5-ethynyl-2′-deoxyuridine (EdU) into replicating DNA according to the protocol described in detail in the Experimental Section. EdU, a thymidine analog, can be incorporated into DNA in vivo and detected later by using copper-catalyzed azide–alkyne cycloaddition (click reaction) without prior DNA denaturation. The pool of cells in the S phase can be then easily detected by fluorescence (FL) microscopy or by flow cytometry by analyzing the incorporation of EdU in replicating DNA of single cells. In this study, after EdU incorporation, the nuclei of the entire cell population were stained with Hoechst and imaged by confocal microscopy (Experimental Section). EdU-positive nuclei, marked by green FL, as well as the total number of nuclei, marked by blue FL, were enumerated by applying the Icy image analysis algorithm on the digital images acquired by confocal microscopy.
(§2) Human cancer cells were plated onto sterile glass coverslips (10-mm diameter, 5161063, ThermoFisher Scientific, Waltham, MA, USA) in 24-well tissue culture plates, at a density 5 times the density of cells seeded in 96-well plate and at a final medium volume of 500 μL. In order to obtain homogeneous plating, 250 μL of the medium was added directly to the wells already containing coverslips. Using a tip perpendicularly, coverslips were pressed in order to ensure their attachment to the bottom of the well. The cells were then seeded by adding 250 μL of single-cell suspension drop by drop following a cross path. Immediately after seeding, the plate was shaken back and forth at least ten times to achieve homogeneous plating. The cells were allowed to adhere overnight (~16 h) at 37 °C and 5% (v/v) CO2. The next day, a volume of 500 μL fresh medium was added to each well and the treatment with OOPs was initiated by adding directly to the wells 2 μL of OOPs from the 500× stock in DMSO and immediately mixed afterward by pipetting. […] Control cells were prepared under the same experimental conditions using DMSO instead of the OOPs’ solutions in DMSO at the same final concentration (0.2% (v/v) DMSO). […] Each condition was performed in duplicate. After treatment with the OOPs, live proliferating mammalian cells were labeled with 5-ethynyl-2’-deoxyuridine (EdU), a nucleoside analog of thymidine, using the Cell proliferation kit III (EdU-FM, PK-CA724-488FM, Promokine, Heidelberg, Germany). More specifically, a 20 μM EdU solution from a 10 mM stock in DMSO was prepared in a fresh culture medium. Culture supernatant was removed from treated cells to leave only 250 μL. An equal volume of 20 μM EdU solution was added and mixed with the medium to obtain a 10 μΜ EdU final concentration. The treated cells were incubated for the desired time of pulse length (2–4 h) under conditions optimal for each cell type depending on each cell line’s doubling time. Following incubation, cells were washed twice with PBS, then fixed with 4% (w/v) paraformaldehyde in PBS for 15 min at room temperature (RT), and subsequently washed twice with 3% (w/v) BSA for 5 min each time. Cells were permeabilized by incubation (20 min, RT, in the dark) with 0.5% (v/v) Triton-X 100 in PBS. Following permeabilization the cells were washed twice with 3% (w/v) BSA in PBS and incubated for 30 min with the reaction cocktail, according to the instructions of the Cell proliferation kit III (EdU-488; FM). After staining for replicating DNA, the cells were washed three times with 3% (w/v) BSA in PBS, and were then incubated (10 min, at RT) with Hoechst 33342 in PBS (1:10.000) to visualize all the nuclei. […]

Hela = assay: EdU incorporation cell proliferation assay, 24 h; settings: for % Inhibition ± SE of cell proliferation: 24 h at EC50, normalized with the control; for % EdU +ve ± SE (S-phase cells): 24 h treatment at EC50 concentration
Method: as §1, §2

SK-BR-3 = assay: EdU incorporation cell proliferation assay, 24 h; settings: for % Inhibition ± SE of cell proliferation: 24 h at EC50, normalized with the control; for % EdU +ve ± SE (S-phase cells): 24 h treatment at EC50 concentration
Method: as §1, §2

H1299 = assay: EdU incorporation cell proliferation assay, 24 h; settings: for % Inhibition ± SE of cell proliferation: 24 h at EC50, normalized with the control; for % EdU +ve ± SE (S-phase cells): 24 h treatment at EC50 concentration
Method: as §1, §2

HepG-2 = assay: EdU incorporation cell proliferation assay, 24 h; settings: for % Inhibition ± SE of cell proliferation: 24 h at EC50, normalized with the control; for % EdU +ve ± SE (S-phase cells): 24 h treatment at EC50 concentration
Method: as §1, §2

PANC-1 = assay: EdU incorporation cell proliferation assay, 24 h; settings: for % Inhibition ± SE of cell proliferation: 24 h at EC50, normalized with the control; for % EdU +ve ± SE (S-phase cells): 24 h treatment at EC50 concentration
Method: as §1, §2

AGS [1] = assay: EdU incorporation cell proliferation assay, 24 h; settings: for % Inhibition ± SE of cell proliferation: 24 h at EC50, normalized with the control; for % EdU +ve ± SE (S-phase cells): 24 h treatment at EC50 concentration
Method: as §1, §2

SK-MEL-28 = assay: EdU incorporation cell proliferation assay, 24 h; settings: for % Inhibition ± SE of cell proliferation: 24 h at EC50, normalized with the control; for % EdU +ve ± SE (S-phase cells): 24 h treatment at EC50 concentration
Method: as §1, §2

AGS [2] = assay: ATP assay under 1% (v/v) O2 versus 20% (v/v) O2, 72 h; settings: 1% (v/v) O2 vs 20% (v/v) O2
Method: The effects of drugs on cancer cell lines are usually tested under atmospheric conditions (20% (v/v) O2). However, the O2 content in tissues (normoxia) and solid tumors (hypoxia) is ≤ 5% (v/v). In some tumors (i.e., pancreatic tumors) the % O2 is even ≤ 1% (v/v). This affects cell metabolism and signaling pathways which depend on the hypoxia-induced Factor 1A (HIF1A) and it could affect the activity of certain drugs. […] The effects of these three OOPs were tested on the MDA-MB 231, SK-BR-3 and MCF-7 breast cancer and on the AGS stomach cancer cell lines.
Figure 6 Effect of O2 concentration on the antiproliferative/cytotoxic effect of OOPs. […] Cell viability was determined on (A) AGS, (B) MDA-MB 231, (C) MCF-7 and (D) SK-BR-3 cell lines using ATP-based luminescence assay. The results presented are from two independent experiments performed in triplicate. Bar graphs represent the mean cell count ± SE in each treatment group normalized to the control group (i.e., cells treated only with 0.2% (v/v) DMSO). * p < 0.05; ** p ≤ 0.01; *** p ≤ 0.001 (t-test) comparing the two different conditions.

Molecule | % Inhibition ± SE of cell proliferation (MDA-MB 231) [%] | % EdU +ve ± SE (S-phase cells) (MDA-MB 231) [%] | % Inhibition ± SE of cell proliferation (Hela) [%] | % EdU +ve ± SE (S-phase cells) (Hela) [%] | % Inhibition ± SE of cell proliferation (SK-BR-3) [%] | % EdU +ve ± SE (S-phase cells) (SK-BR-3) [%] | % Inhibition ± SE of cell proliferation (H1299) [%] | % EdU +ve ± SE (S-phase cells) (H1299) [%] | % Inhibition ± SE of cell proliferation (HepG-2) [%] | % EdU +ve ± SE (S-phase cells) (HepG-2) [%] | % Inhibition ± SE of cell proliferation (PANC-1) [%] | % EdU +ve ± SE (S-phase cells) (PANC-1) [%] | % Inhibition ± SE of cell proliferation (AGS [1]) | % EdU +ve ± SE (S-phase cells) (AGS [1]) | % Inhibition ± SE of cell proliferation (SK-MEL-28) | % EdU +ve ± SE (S-phase cells) (SK-MEL-28) | bioactivity under hypoxia versus atmospheric O2 (AGS [2])
COC(=O)C1=COC(C)[C@@H](C=O)[C@@H]1CC(=O)OCCc1ccc(O)c(O)c1 (mixture of isomers) [3a,b, oleuropein aglycone] | 21.5 ± 2.1 | 19.7 ± 3.1 | 24.3 ± 2.1 | 20.9 ± 3.5 | 16.9 ± 1.7 | 6.6 ± 3.5 | 29.1 ± 6.5 | 31.9 ± 5.9 | 28.4 ± 0.1 | 10.6 ± 3.1 | 23.6 ± 0.8 | 21.9 ± 5.3 | 28.9 ± 1.5 ^a % | 18.4 ± 1.5 ^a % | 24.7 ± 0.7 ^a % | 0.7 ± 0.3 ^a % | similar
C/C=C(/C=O)[C@@H](CC=O)CC(=O)OCCc1ccc(O)cc1 [compound 1, oleocanthal] | – | 29.1 ± 2.3 | – | – | – | 9.5 ± 3.9 | – | 14.0 ± 1.9 | – | 26.4 ± 1.5 | – | 23.6 ± 5.8 | – | 16.2 ± 4.4 ^a % | – | 15.0 ± 4.8 ^a % | similar
C/C=C(/C=O)[C@@H](CC=O)CC(=O)OCCc1ccc(O)c(O)c1 [compound 2, oleacein] | 15.7 ± 2.4 | 25.5 ± 4.1 | 23.6 ± 7.9 | 21.7 ± 6.5 | 16.2 ± 2.4 | 7.4 ± 0.7 | 47.8 ± 4.1 | 13.2 ± 3.5 | – | – | – | 37.6 ± 7.1 | 31.0 ± 3.5% | 14.7 ± 0.4% | 20.3 ± 4.0% | 1.8 ± 0.4% | –
ligstroside aglycone [4a,b] | 8.2 ± 1.8 | 33.0 ± 2.8 | 14.1 ± 6.3 | 31.2 ± 4.9 | 4.8 ± 3.1 | 18.8 ± 1.3 | – | – | 27.0 ± 1.1 | 12.0 ± 2.0 | 23.4 ± 2.7 | 22.1 ± 7.2 | 31.6 ± 2.6% | 14.0 ± 0.5% | 4.7 ± 4.6 ^a % | 20.8 ± 5.1 ^a % | less effective under hypoxic conditions
